This experiment concerns 435261-313-R-J1-PDC complex spheroid viability. Description: Anticancer human tumor 435261-313-R-J1-PDC patient-derived colon adenocarcinoma cell line growth inhibition [GQUAD]. The following applies: for viability, T/C: stronger effect = lower value. In outline: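 Tumor cells were grown as complex spheroids with HUVEC endothelial cells and mesenchymal stem cells as stroma. G-quadruplex stabilizers were combined with targeted agents over half-log dilutions from near the clinical Cmax, or from 10 microM.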

The text below walks through data of PubChem BioAssay AID2060494 (Molecular Pharmacology Branch, DTP, NCI, 2025).

Values joined by “and” are separate entries in the source; they are usually repeats but may differ in a detail not shown here. Identical values can stand only once.
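Also: spheroids exposed to the agents for seven days before readout.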
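For viability, T/C in this document: percent of vehicle control viability with DMSO wells as 100%.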

As to `COc1cc(C2c3cc4c(cc3C(OC3OC5COC(C)OC5C(O)C3O)C3COC(=O)C23)OCO4)cc(OC)c1O` (configuration not stated), the viability, T/C is 118% and 96.2% (compound 0.0316 µM); 67.4% and 93.6% (compound 0.1 µM); 83.6% and 91.3% (compound 0.316 µM); 56.6% and 80.2% (compound 1 µM); 62.7% and 78.5% (compound 3.16 µM); 52.2% and 61.6% (compound 10 µM). The IC50 (curve of compound) is more than 10 µM.

Turning to `C#Cc1c(F)ccc2cc(O)cc(-c3ncc4c(N5CC6CCC(C5)N6)nc(OCC56CCCN5CC(F)C6)nc4c3F)c12` (configuration not stated), the viability, T/C was 108% and 99.7% and 99.5% (compound 0.0316 µM); 99.8% and 93.3% and 92.1% (compound 0.1 µM); 92.1% and 98.2% and 99.7% (compound 0.316 µM); 80.9% and 54.3% and 80.5% (compound 1 µM); 51.5% and 76.6% and 64.6% (compound 3.16 µM); 57.3% and 53.5% and 39.1% (compound 10 µM). For the setting “curve of compound”, the IC50 is > 10 µM and 6.01 µM.

Turning to `CC(C)n1c(=O)n(C)c2cnc3cc(F)c(-c4ccc(OCCCN5CCCCC5)nc4)cc3c21`, the viability, T/C is 94.4% and 102% (compound 0.0316 µM); 88% and 71.4% (compound 0.1 µM); 109% and 113% (compound 0.316 µM); 81.4% and 57.3% (compound 1 µM); 65.6% and 84.4% (compound 3.16 µM); 37.7% and 38.4% (compound 10 µM). Besides, the half-maximal inhibitory concentration (IC50) (curve of compound) is 5.9 µM and 7.09 µM.

For `CC1COCCN1c1cc(C2(S(C)(=N)=O)CC2)nc(-c2ccnc3[nH]ccc23)n1` (configuration not stated), the viability, T/C is, setting by setting: (compound 0.0316 µM) 98.5% and 112% and 88.4%; (compound 0.1 µM) 87.1% and 109% and 69.1%; (compound 0.316 µM) 88.4% and 79.8% and 94%; (compound 1 µM) 83.2% and 81.4% (2×); (compound 3.16 µM) 65.6% and 80.9% and 47.6%; (compound 10 µM) 51.2% and 79.8% and 42%. The 50% inhibitory concentration (IC50) (curve of compound) was > 10 µM and 2.92 µM.

Consider `CC(C)(O)C1CCC(Nc2ccc3ncc(-c4cccc(C(F)(F)F)c4)n3n2)CC1` (configuration not stated), for which the viability, T/C is, setting by setting: (compound 0.0316 µM) 60.2%; (compound 0.1 µM) 82%; (compound 0.316 µM) 82.5%; (compound 1 µM) 36.3%; (compound 3.16 µM) 9.61%; (compound 10 µM) 12.9%. Also, the IC50 (curve of compound) came to 0.665 µM.

In the case of `COc1ccc([C@@H](O)c2cc(-c3ncnc4cc(N5CCOCC5)ccc34)c(F)cc2Cl)nn1` + Cc1[nH]c2ccc(F)cc2c1-c1nc2c3cccnc3c3ncccc3c2[nH]1, the half-maximal inhibitory concentration (IC50) is 1.08 µM (curve of first compound, second compound 0.0316 µM); 4.22 µM (curve of first compound, second compound 0.1 µM); 3.42 µM (curve of first compound, second compound 0.316 µM); 2.81 µM (curve of first compound, second compound 1 µM); less than 0.0316 µM (curve of first compound, second compound 3.16 µM); less than 0.0316 µM (curve of first compound, second compound 10 µM). Besides, the viability, T/C is 88.7% (second compound 0.0316 µM, first compound 0.0316 µM); 64.5% (second compound 0.0316 µM, first compound 0.1 µM); 88.6% (second compound 0.0316 µM, first compound 0.316 µM); 50.8% (second compound 0.0316 µM, first compound 1 µM); 44.5% (second compound 0.0316 µM, first compound 3.16 µM); 30.4% (second compound 0.0316 µM, first compound 10 µM). Further, the viability, T/C is 99% (second compound 0.1 µM, first compound 0.0316 µM); 97.6% (second compound 0.1 µM, first compound 0.1 µM); 106% (second compound 0.1 µM, first compound 0.316 µM); 70.2% (second compound 0.1 µM, first compound 1 µM); 62.7% (second compound 0.1 µM, first compound 3.16 µM); 24.5% (second compound 0.1 µM, first compound 10 µM). Moreover, the viability, T/C is, setting by setting: (second compound 0.316 µM, first compound 0.0316 µM) 63.4%; (second compound 0.316 µM, first compound 0.1 µM) 99.4%; (second compound 0.316 µM, first compound 0.316 µM) 70.5%; (second compound 0.316 µM, first compound 1 µM) 87.9%; (second compound 0.316 µM, first compound 3.16 µM) 51.8%; (second compound 0.316 µM, first compound 10 µM) 25.2%. Moreover, the viability, T/C (second compound 1 µM, first compound 0.0316 µM) was 67.8%; the viability, T/C (second compound 1 µM, first compound 0.1 µM) is 65.3%; the viability, T/C (second compound 1 µM, first compound 0.316 µM) was 82%; the viability, T/C (second compound 1 µM, first compound 1 µM) was 45.2%; the viability, T/C (second compound 1 µM, first compound 3.16 µM) is 55.4%; the viability, T/C (second compound 1 µM, first compound 10 µM) is 20%. For the same compound, the viability, T/C was 45.2% (second compound 3.16 µM, first compound 0.0316 µM); 30.1% (second compound 3.16 µM, first compound 0.1 µM); 35.5% (second compound 3.16 µM, first compound 0.316 µM); 36.4% (second compound 3.16 µM, first compound 1 µM); 13.6% (second compound 3.16 µM, first compound 3.16 µM); 10.9% (second compound 3.16 µM, first compound 10 µM). Also, the viability, T/C (second compound 10 µM, first compound 0.0316 µM) was 19.8%; the viability, T/C (second compound 10 µM, first compound 0.1 µM) is 21.9%; the viability, T/C (second compound 10 µM, first compound 0.316 µM) is 27.1%; the viability, T/C (second compound 10 µM, first compound 1 µM) is 18.7%; the viability, T/C (second compound 10 µM, first compound 3.16 µM) is 13.2%; the viability, T/C (second compound 10 µM, first compound 10 µM) was 8.61%.
